Key:
[1] = Apparent permeability across apical to basolateral side in human Caco2 cells in presence of 0.1% bovine serum albumin; conditions: Caco-2
[2] = Apparent permeability across basolateral to apical side in human Caco2 cells in presence of 0.1% bovine serum albumin; conditions: Caco-2
[3] = Ratio of apparent permeability across apical to basolateral over basolateral to apical side in human Caco2 cells in presence of 0.1% bovine serum albumin; format: ADME, cell-based; conditions: Caco-2
[4] = target: Cytochrome P450 3A4 (Homo sapiens, UniProt P08684); test: Inhibition of CYP3A4 (unknown origin) by luciferase reporter assay in presence of NADPH regeneration system; format: ADME
[5] = target: Cytochrome P450 2C9 (Homo sapiens, UniProt P11712); test: Inhibition of CYP2C9 (unknown origin) by luciferase reporter assay in presence of NADPH regeneration system; format: ADME
[6] = target: Cytochrome P450 2D6 (Homo sapiens, UniProt P10635); test: Inhibition of CYP2D6 (unknown origin) by luciferase reporter assay in presence of NADPH regeneration system; format: ADME
[7] = Solubility of the compound in PBS buffer at pH 7.4 by shake-flask method; format: physicochemical
[8] = target: T1, Cytochrome P450 1A2 (Homo sapiens, UniProt P05177); test: Inhibition of CYP1A2 (unknown origin) by luciferase reporter assay in presence of NADPH regeneration system; format: ADME
T1 sequence (P05177 whole entry): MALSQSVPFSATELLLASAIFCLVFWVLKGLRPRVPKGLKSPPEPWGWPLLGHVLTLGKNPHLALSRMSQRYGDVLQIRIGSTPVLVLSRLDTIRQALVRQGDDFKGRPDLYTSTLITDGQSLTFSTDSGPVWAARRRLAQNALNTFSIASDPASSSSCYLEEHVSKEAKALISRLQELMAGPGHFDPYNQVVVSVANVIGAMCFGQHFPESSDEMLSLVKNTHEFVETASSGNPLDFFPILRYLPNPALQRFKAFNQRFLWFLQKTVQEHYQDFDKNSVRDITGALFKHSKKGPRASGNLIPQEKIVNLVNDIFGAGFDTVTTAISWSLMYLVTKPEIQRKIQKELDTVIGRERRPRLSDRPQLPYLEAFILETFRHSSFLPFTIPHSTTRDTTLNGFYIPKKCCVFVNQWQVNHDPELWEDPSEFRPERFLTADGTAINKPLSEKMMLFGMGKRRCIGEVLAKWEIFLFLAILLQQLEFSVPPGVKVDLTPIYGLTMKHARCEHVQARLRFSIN

[9] = target: T2, Neuromedin-K receptor (Homo sapiens, UniProt P29371)
T2 sequence (P29371 whole entry): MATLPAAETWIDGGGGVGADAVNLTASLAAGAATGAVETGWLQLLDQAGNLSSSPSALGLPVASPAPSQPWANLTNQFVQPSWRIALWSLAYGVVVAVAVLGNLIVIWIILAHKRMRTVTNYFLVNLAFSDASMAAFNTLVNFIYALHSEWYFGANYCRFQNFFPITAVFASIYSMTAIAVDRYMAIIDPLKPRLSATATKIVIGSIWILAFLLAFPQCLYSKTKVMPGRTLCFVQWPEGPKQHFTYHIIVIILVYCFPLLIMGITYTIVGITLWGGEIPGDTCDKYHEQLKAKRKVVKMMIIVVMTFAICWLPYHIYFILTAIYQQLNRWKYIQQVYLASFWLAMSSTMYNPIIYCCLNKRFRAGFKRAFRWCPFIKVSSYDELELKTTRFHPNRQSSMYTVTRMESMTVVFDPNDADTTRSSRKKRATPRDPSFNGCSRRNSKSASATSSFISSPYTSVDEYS

[10] = Half life in human liver microsomes; format: ADME
[11] = target: Cytochrome P450 2C19 (Homo sapiens, UniProt P33261); test: Inhibition of CYP2C19 (unknown origin) by luciferase reporter assay in presence of NADPH regeneration system
[12] = Lipophilicity, log D of the compound at pH 7.4; format: physicochemical; conditions: buffer, read-out: logD
[13] = in vivo; conditions: Sprague-Dawley, rat, po, 3 mg/kg
[14] = Half life in rat liver microsomes; format: ADME
[15] = target: T2, Neuromedin-K receptor; test: biochemical
Description: Displacement of [3H]-SB222200 from recombinant human NK3R expressed in CHO cell membranes after 90 mins by scintillation counting analysis

[16] = test system: Rattus norvegicus; test: Unbound Cmax in Sprague-Dawley rat at 3 mg/kg, po by LC-MS/MS analysis; format: ADME, organism-based; parameters: dose 3 mg/kg, route oral; conditions: in vivo
[17] = test system: Rattus norvegicus; test: Unbound AUC in Sprague-Dawley rat at 1 mg/kg, iv by LC-MS/MS analysis; format: ADME, organism-based; parameters: dose 1 mg/kg, route intravenous; conditions: in vivo
[18] = Total systemic clearance in Sprague-Dawley rat at 1 mg/kg, iv by LC-MS/MS analysis; format: ADME, organism-based; parameters: dose 1 mg/kg, route intravenous; conditions: in vivo
[19] = target: Adenosine receptor A3 (Homo sapiens) (UniProt P0DMS8); test: Inhibition of recombinant human adenosine A3 receptor expressed in HEK293 cells by radioligand displacement assay relative to control; format: cell-based; conditions: concentration not given here
Adenosine receptor A3 (Homo sapiens), sequence (P0DMS8 whole entry): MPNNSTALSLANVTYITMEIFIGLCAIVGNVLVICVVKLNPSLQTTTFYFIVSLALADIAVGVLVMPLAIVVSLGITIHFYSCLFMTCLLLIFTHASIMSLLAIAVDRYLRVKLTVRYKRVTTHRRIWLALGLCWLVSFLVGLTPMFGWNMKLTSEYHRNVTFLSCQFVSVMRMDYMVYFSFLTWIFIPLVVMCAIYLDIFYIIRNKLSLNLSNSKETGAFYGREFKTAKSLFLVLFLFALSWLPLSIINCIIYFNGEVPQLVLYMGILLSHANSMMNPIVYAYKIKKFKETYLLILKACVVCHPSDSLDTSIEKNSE

[20] = Fraction unbound in rat brain at 5 uM after 4 hrs by equilibrium dialysis method; format: ADME, tissue-based
[21] = test system: Rattus norvegicus; test: Unbound AUC in Sprague-Dawley rat at 3 mg/kg, po by LC-MS/MS analysis; format: ADME, organism-based; parameters: dose 3 mg/kg, route oral; conditions: in vivo
[22] = target: Prostaglandin E2 receptor EP4 subtype (Homo sapiens) (UniProt P35408); test: Inhibition of recombinant human prostanoid receptor EP4 expressed in HEK293 cells by radioligand displacement assay relative to control; format: cell-based; conditions: concentration not given here
[23] = target: Kappa-type opioid receptor (Homo sapiens) (UniProt P41145); test: Inhibition of KOR (unknown origin) at 10 uM relative to control
Kappa-type opioid receptor (Homo sapiens), sequence (P41145 whole entry): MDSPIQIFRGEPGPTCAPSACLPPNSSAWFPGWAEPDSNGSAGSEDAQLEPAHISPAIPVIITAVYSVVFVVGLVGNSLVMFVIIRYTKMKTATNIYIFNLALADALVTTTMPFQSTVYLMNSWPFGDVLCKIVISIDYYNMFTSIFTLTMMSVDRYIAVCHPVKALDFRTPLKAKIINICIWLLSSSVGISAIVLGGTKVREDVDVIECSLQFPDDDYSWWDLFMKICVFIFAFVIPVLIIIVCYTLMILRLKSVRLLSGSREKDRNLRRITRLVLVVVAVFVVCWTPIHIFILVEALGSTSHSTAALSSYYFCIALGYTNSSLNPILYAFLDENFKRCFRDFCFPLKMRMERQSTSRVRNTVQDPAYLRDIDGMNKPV

[24] = Fraction unbound in rat plasma at 5 uM after 4 hrs by equilibrium dialysis method; format: ADME, cell-free
[25] = in vivo; conditions: Sprague-Dawley, rat, iv, 1 mg/kg
Description: Volume of distribution at steady state in Sprague-Dawley rat at 1 mg/kg, iv by LC-MS/MS analysis

[26] = in vivo; conditions: Sprague-Dawley, rat, po, 3 mg/kg; remark: listed apart in the source
[27] = target: Gastrin/cholecystokinin type B receptor (Homo sapiens) (UniProt P32239); test: Inhibition of recombinant human CCK2 receptor expressed in CHO cells by radioligand displacement assay relative to control; format: cell-based; conditions: concentration not given here
[28] = in vivo; conditions: Sprague-Dawley, rat, iv, 1 mg/kg; remark: listed apart in the source
[29] = target: Translocator protein (Homo sapiens) (UniProt P30536); test: Inhibition of benzodiazepine receptor (unknown origin) by radioligand displacement assay relative to control; conditions: concentration not given here
Translocator protein (Homo sapiens), sequence (P30536 whole entry): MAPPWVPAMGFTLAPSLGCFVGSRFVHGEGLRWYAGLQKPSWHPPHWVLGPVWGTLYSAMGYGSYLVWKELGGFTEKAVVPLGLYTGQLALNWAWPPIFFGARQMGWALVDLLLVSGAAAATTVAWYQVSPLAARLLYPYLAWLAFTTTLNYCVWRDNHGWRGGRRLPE

[30] = target: Adenosine receptor A1 (Homo sapiens) (UniProt P30542); test: Displacement of [3H]DPCPX from recombinant human adenosine A1 receptor expressed in CHO cells after 60 mins by scintillation counting analysis relative to control; format: cell-based
[31] = target: Delta-type opioid receptor (Rattus norvegicus) (UniProt P33533); test: Displacement of [3H]naloxone from delta opioid receptor in rat cerebral cortex at 1 uM after 40 mins by scintillation counting analysis relative to control; format: tissue-based
Delta-type opioid receptor (Rattus norvegicus), sequence (P33533 whole entry): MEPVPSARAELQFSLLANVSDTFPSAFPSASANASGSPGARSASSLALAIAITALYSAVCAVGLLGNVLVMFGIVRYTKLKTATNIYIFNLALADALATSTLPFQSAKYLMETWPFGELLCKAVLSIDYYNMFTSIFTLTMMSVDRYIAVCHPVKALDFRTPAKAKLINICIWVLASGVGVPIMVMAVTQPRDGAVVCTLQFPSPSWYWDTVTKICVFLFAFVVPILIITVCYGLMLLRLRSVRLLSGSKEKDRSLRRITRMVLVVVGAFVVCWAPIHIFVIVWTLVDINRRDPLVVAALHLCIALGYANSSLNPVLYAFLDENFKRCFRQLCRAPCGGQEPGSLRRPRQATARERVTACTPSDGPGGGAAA

[32] = target: 5-hydroxytryptamine receptor 7 (Homo sapiens) (UniProt P34969); test: Inhibition of recombinant human 5HT7 receptor expressed in CHO cells at 1 uM by radioligand displacement assay relative to control; format: cell-based
5-hydroxytryptamine receptor 7 (Homo sapiens), sequence (P34969 whole entry): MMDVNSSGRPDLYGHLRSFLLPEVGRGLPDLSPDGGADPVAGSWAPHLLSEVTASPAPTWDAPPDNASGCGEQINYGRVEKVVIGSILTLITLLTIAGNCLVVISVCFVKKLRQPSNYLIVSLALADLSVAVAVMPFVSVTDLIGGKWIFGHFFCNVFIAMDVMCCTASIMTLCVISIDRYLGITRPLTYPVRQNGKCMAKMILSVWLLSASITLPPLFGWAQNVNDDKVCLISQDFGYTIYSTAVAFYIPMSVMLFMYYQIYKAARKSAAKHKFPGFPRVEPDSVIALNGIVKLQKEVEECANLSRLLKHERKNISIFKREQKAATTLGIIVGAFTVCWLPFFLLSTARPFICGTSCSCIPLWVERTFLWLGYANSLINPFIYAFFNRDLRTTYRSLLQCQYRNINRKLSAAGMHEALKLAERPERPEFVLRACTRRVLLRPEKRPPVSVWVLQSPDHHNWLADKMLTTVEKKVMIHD

[33] = target: Muscarinic acetylcholine receptor M4 (Homo sapiens) (UniProt P08173); test: Displacement of [3H]4-DAMP from recombinant human muscarinic M4 receptor expressed in CHO cells at 1 uM after 60 mins by scintillation counting analysis relative to control; format: cell-based
[34] = target: Sodium-dependent dopamine transporter (Homo sapiens) (UniProt Q01959); test: Displacement of [3H]BTCP from recombinant human dopamine transporter expressed in CHO cells at 1 uM after 120 mins by scintillation counting analysis relative to control; format: cell-based
[35] = target: Kappa-type opioid receptor (Rattus norvegicus) (UniProt P34975); test: Inhibition of rat recombinant KOR expressed in CHO cells at 1 uM by radioligand displacement assay relative to control; format: cell-based
Kappa-type opioid receptor (Rattus norvegicus), sequence (P34975 whole entry): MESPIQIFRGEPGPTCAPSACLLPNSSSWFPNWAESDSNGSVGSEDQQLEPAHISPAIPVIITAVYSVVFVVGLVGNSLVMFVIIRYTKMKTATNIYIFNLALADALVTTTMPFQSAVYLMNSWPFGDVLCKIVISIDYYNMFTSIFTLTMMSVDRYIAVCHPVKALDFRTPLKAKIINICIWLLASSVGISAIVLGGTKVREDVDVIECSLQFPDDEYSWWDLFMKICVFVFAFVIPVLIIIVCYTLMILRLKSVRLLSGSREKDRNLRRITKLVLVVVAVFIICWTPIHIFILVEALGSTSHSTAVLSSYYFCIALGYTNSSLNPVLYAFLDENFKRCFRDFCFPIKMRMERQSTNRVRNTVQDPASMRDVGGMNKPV

[36] = target: 5-hydroxytryptamine receptor 2A (Homo sapiens) (UniProt P28223); test: Displacement of [3H]ketanserin from recombinant human 5HT2A receptor expressed in HEK293 cells at 1 uM after 60 mins by scintillation counting analysis relative to control; format: cell-based
5-hydroxytryptamine receptor 2A (Homo sapiens), sequence (P28223 whole entry): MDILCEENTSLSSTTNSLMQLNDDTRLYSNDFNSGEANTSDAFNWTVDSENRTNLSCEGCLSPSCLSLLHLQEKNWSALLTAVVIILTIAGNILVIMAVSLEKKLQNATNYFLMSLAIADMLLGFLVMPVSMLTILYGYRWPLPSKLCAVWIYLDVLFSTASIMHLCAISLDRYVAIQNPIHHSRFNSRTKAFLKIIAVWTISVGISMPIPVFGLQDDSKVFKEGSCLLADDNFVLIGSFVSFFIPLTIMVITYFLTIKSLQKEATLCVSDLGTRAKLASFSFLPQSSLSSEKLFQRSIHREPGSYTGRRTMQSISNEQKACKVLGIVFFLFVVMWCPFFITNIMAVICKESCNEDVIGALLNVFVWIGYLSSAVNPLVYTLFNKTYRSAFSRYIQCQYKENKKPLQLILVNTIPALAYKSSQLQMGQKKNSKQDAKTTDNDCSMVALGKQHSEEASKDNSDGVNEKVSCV

[37] = target: 5-hydroxytryptamine receptor 1A (Homo sapiens) (UniProt P08908); test: Inhibition of recombinant human 5HT1A receptor expressed in HEK293 cells at 1 uM by radioligand displacement assay relative to control; format: cell-based
[38] = target: Muscarinic acetylcholine receptor M5 (Homo sapiens) (UniProt P08912); test: Displacement of [3H]4-DAMP from recombinant human muscarinic M5 receptor expressed in CHO cells at 1 uM after 60 mins by scintillation counting analysis relative to control; format: cell-based
Muscarinic acetylcholine receptor M5 (Homo sapiens), sequence (P08912 whole entry): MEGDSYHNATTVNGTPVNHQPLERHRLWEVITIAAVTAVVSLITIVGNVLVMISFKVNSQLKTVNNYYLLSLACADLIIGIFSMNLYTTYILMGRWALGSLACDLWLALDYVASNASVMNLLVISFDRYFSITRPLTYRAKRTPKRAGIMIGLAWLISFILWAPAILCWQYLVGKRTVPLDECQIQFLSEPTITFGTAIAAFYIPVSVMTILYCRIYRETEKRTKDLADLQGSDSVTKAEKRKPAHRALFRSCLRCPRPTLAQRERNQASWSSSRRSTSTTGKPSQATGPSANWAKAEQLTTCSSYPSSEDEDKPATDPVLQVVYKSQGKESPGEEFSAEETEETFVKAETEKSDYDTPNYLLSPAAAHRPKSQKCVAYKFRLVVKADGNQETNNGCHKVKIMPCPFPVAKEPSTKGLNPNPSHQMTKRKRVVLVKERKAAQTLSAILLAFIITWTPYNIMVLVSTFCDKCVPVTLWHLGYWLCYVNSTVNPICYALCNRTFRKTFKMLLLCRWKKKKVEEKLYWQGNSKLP

[39] = target: D(3) dopamine receptor (Homo sapiens) (UniProt P35462); test: Displacement of [3H]methyl-spiperone from recombinant human dopamine D3 receptor expressed in CHO cells at 1 uM by scintillation counting analysis relative to control; format: cell-based
D(3) dopamine receptor (Homo sapiens), sequence (P35462 whole entry): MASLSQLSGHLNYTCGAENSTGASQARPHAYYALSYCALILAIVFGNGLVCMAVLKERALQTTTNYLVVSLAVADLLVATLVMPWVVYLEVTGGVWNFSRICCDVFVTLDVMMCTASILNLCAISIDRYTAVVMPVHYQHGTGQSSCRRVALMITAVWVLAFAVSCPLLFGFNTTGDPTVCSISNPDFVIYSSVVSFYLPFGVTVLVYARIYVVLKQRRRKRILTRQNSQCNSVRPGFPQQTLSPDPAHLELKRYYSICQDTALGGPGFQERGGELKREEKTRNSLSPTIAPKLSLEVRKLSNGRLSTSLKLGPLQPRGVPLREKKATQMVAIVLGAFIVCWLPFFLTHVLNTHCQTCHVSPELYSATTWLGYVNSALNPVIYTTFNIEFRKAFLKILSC

[40] = target: Muscarinic acetylcholine receptor M3 (Homo sapiens) (UniProt P20309); test: Displacement of [3H]4-DAMP from recombinant human muscarinic M3 receptor expressed in CHO cells at 1 uM after 60 mins by scintillation counting analysis relative to control; format: cell-based
Muscarinic acetylcholine receptor M3 (Homo sapiens), sequence (P20309 whole entry, looked up): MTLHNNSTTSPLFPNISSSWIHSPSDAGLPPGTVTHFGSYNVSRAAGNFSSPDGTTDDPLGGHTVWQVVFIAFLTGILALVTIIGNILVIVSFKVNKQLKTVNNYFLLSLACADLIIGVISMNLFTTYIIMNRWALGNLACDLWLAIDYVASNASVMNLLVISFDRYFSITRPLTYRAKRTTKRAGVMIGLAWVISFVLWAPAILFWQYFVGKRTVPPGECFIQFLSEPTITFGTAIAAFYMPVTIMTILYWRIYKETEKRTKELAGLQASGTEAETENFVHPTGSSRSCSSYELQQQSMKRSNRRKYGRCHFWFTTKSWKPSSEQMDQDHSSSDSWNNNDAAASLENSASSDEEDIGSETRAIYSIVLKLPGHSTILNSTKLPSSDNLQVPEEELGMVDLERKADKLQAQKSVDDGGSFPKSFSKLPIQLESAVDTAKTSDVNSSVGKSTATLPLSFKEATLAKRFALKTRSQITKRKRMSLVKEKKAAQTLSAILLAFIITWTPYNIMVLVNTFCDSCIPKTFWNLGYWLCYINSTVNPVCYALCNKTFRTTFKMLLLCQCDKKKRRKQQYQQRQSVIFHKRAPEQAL

[41] = target: Kappa-type opioid receptor (Homo sapiens) (UniProt P41145); test: Inhibition of KOR (unknown origin) at 1 uM relative to control
[42] = target: Mu-type opioid receptor (Homo sapiens) (UniProt P35372); test: Inhibition of recombinant human mu opioid receptor expressed in HEK293 cells at 1 uM by radioligand displacement assay relative to control; format: cell-based
[43] = target: Histamine H2 receptor (Homo sapiens) (UniProt P25021); test: Displacement of [125I]APT from recombinant human histamine H2 receptor expressed in CHO cells at 1 uM after 120 mins by scintillation counting analysis relative to control; format: cell-based
Histamine H2 receptor (Homo sapiens), sequence (P25021 whole entry): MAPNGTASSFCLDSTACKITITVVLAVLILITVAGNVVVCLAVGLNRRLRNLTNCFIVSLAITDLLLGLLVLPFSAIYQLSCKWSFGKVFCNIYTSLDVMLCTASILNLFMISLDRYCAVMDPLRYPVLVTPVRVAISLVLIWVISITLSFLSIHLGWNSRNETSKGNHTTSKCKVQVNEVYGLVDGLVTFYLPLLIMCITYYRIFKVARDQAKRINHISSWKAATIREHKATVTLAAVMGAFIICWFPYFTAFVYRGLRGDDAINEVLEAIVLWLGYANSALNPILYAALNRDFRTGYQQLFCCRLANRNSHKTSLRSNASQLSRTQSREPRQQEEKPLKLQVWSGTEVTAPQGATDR

[44] = target: Sodium-dependent noradrenaline transporter (Homo sapiens) (UniProt P23975); test: Displacement of [3H]nisoxetine from recombinant human norepinephrine transporter expressed in CHO cells at 1 uM after 120 mins by scintillation counting analysis relative to control; format: cell-based
[45] = target: 5-hydroxytryptamine receptor 2B (Homo sapiens) (UniProt P41595); test: Displacement of [3H]mesulergine from recombinant human 5HT2B receptor expressed in CHO cells at 1 uM after 60 mins by scintillation counting analysis relative to control; format: cell-based
5-hydroxytryptamine receptor 2B (Homo sapiens), sequence (P41595 whole entry): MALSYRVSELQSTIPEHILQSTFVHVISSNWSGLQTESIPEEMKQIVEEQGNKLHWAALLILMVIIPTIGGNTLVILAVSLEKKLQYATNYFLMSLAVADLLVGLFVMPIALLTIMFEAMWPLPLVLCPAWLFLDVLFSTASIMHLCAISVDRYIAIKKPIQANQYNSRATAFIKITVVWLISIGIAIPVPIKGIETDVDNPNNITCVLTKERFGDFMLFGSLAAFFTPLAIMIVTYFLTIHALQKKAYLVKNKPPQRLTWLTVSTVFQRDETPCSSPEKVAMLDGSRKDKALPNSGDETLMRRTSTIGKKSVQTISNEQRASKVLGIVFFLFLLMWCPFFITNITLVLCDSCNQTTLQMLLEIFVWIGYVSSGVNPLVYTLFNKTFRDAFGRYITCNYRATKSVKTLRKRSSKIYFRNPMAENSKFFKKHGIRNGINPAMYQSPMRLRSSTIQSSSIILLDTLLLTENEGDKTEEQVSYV

`CC(C)NCC(O)COc1cccc2ccccc12` (configuration not stated) [PROPRANOLOL] showed a Papp A→B [1] of no less than 45 ×10⁻⁶ cm/s, a Papp B→A [2] of no less than 45 ×10⁻⁶ cm/s and a Ratio [3] of 1.

`O=C(c1ccc(F)cc1)N1CCn2c(nnc2-c2ccccn2)C1` showed an IC50 [4] greater than 100 µM, an IC50 [5] of 66 µM and an IC50 [6] of 15 µM. It also gave a solubility thermodynamic [7] of no less than 200 µM, an IC50 [8] of 27 µM and an IC50 [9] of 4 µM. The half-life [10] was greater than 4 h, the IC50 [11] was 14 µM and the logD [12] was 1.1. The bioavailability [13] was 108%, the half-life [14] was greater than 4 h and the Ki [15] was 4.5 µM.

For `CC[C@H](NC(=O)c1c(O)c(-c2ccccc2)nc2ccccc12)c1ccccc1` [TALNETANT], the fCmax [16] was 2.65 nM, the Papp A→B [1] was 87.2 ×10⁻⁶ cm/s and the Papp B→A [2] was 98.5 ×10⁻⁶ cm/s. For the same compound, the fAUC [17] was 0.5 µM·min, the clearance [18] was 2 mL/min/kg and the inhibition [19] was greater than 60%. It also gave a fraction unbound at 4 h, 5 µM [20] of 0.01, a fAUC [21] of 0.7 µM·min and an inhibition [22] greater than 60%. It also gave an inhibition [23] of 12%, a fraction unbound at 4 h, 5 µM [24] of 0.0003 and a Vd [25] of 1.5 L/kg. The Tmax [26] was 1 h, the inhibition [27] was greater than 60% and the half-life [28] was 7.47 h. It also gave a bioavailability [13] of 47%, an inhibition [29] greater than 60% and an inhibition [30] greater than 60%.

With `CC(=O)N(C)C1(c2ccccc2)CCN(CCC[C@]2(c3ccc(Cl)c(Cl)c3)CCCN(C(=O)c3ccccc3)C2)CC1` [OSANETANT] the fCmax [16] was 0.42 nM, the inhibition [31] was greater than 50% and the fAUC [17] was 0.2 µM·min. For the same compound, the inhibition [32] was greater than 50%, the inhibition [33] was greater than 50% and the inhibition [34] was greater than 50%. The fraction unbound at 4 h, 5 µM [20] was 0.001, the inhibition [35] was greater than 50% and the inhibition [36] was greater than 50%. It also gave a fAUC [21] of 0.1 µM·min, an inhibition [37] greater than 50% and an inhibition [38] greater than 50%. The inhibition [39] was greater than 50%, the inhibition [23] was 100% and the fraction unbound at 4 h, 5 µM [24] was 0.006. For the same compound, the inhibition [40] was greater than 50%, the inhibition [41] was 75% and the inhibition [42] was greater than 50%. For the same compound, the inhibition [43] was greater than 50%, the Tmax [26] was 0.75 h and the logD [12] was 3.4. For the same compound, the half-life [28] was 2.02 h, the inhibition [44] was greater than 50% and the inhibition [45] was greater than 50%.

From ChEMBL document CHEMBL3421625, “Discovery and optimization of novel antagonists to the human neurokinin-3 receptor for the treatment of sex-hormone disorders (Part I)” (J Med Chem, 2015)
